Here are results for 2 molecules from patent publication US20090186838A1, “Amphotericin Derivatives” (Eidgenössische Technische Hochschule Zürich, priority 2006, published 2009).

In brackets after ≈: the same amount, converted by molar mass. Several values for one entry are separate records, joined by “and”; a condition that tells them apart may be missing. Equal values may be shown once. Read-outs that look alike come from different tables or passages of the source.

Data set [1] concerns DSY-1764 C. albican mutant erg3/11 (AmB-resistant strain). Kind of data set: MIC determination in AmB-resistant Candida strain DSY-1764. The format is cell-based, Candida albicans. The settings on record: Candida albicans, 36 h. The protocol: (§1) In Vitro Antifungal Activity. MIC values for various strains were determined in accordance with the standard protocol from the National Committee of Clinical Laboratory Standards but using YEPD liquid medium instead of RPMI-1640 medium (National Committee of Clinical Laboratory Standards (Reference Method for Broth Dilution Antifungal Susceptibility Testing of Yeast, M27-A2, Approved Standard-Second Edition, Volume 22, Number 15, 1995). AmB was used as a reference. The strains were cultivated overnight in 5 mL YEPD liquid medium at 30 to 37° C. (30° C. for the strain BY4741; 37° C. for the strain DSY1764) with constant shaking. The saturated cultures were diluted to an ODB600 of 0.1 (3×10P^7 cells/mL). Using 24 wells plate, each well was prepared by adding 1% (12 μL) of DMSO solution of the tested polyene macrolide with 1% (12 μL) yeast cells solution and completed with YEPD (1.176 mL). The plates were sealed with Parafilm and then incubated for 18 to 36 hours at 30 to 37° C. (18 hours at 30° C. for the strain BY4741; 36 hours at 37° C. for the strain DSY1764). The optical density was read at 600 nm using 1.5 mL cuvettes. The MIC value was defined as the drug concentration needed to inhibit growth, less than 5% compared to a drug-free culture.
(§2) MIC values of the polyene macrolides 3, 9 and 10 (Diamine-AmB and its ester and diamide derivative, respectively) in various Candida strains including an AmB-resistant strain C. albicans (DSY1764, with the genotype erg3AΔ::hisG/erg3BΔ::hisG erg11Δ::hisG/erg11Δ::hisG-URA3-hisG) were determined.

Data set [2] is described as follows: K+ efflux assay, cholesterol containing vesicles. The conditions noted are these: lower concentration, 0.1 μM (FIG. 3a,c,e,g). On the procedure:
(§3) FIG. 3. K^+ efflux from vesicles (LUVET100) prepared from […] (POPC) (solid line) or POPC with sterols (dotted line) for ergosterol and (broken line) for cholesterol caused by AmB (1a) (FIGS. 3a,b) and AmB diamine 3 (FIG. 3c,d), AmB diamine ester 9 (FIG. 3e,f) and AmB diamine amide 10 (FIG. 3g,h), added in DMSO to a suspension of vesicles to give final concentrations of 0.1 μM (FIG. 3a,c,e,g) and 1.0 μM (FIG. 3b,d,f,h).
K+ efflux assay. The K^+ efflux measurements were made following a previously described procedure (Zumbuehl, A. et al., Angew. Chem. Int. Ed. 2004, 43, 5181-5185; Zumbuehl, A. et al., Org. Lett. 2004, 6, 3683-3686). The appropriate liposome suspensions were prepared using POPC, cholesterol and ergosterol. Then the liposomes were sized by extrusion through two 400 nm, 200 nm, and finally 100 nm pore size membrane. The resultant “100 nm” unilamellar liposomes were dialyzed against 600 mL of 150 mM NaCl, 5 mM HEPES (pH 7.4) buffer. After, the suspension was diluted with 150 mM NaCl, 5 mM HEPES (pH 7.4) buffer to 1 mM overall lipid concentration (phospholipids+sterols). For each efflux measurement 10 mL of this liposome suspension was placed in a small beaker. Potentiometric measurements were performed with a 16-channel electrode monitor in magnetically stirred solutions at ambient temperature. The reference electrode was a Metrohm double junction Ag/AgCl reference electrode with 3 M KCl as reference electrolyte and 1 M LiOAc as bridge electrolyte. After recording the amphotericin-induced potassium efflux, liposomes were lysed by adding sodium cholate (172 mg). The resulting reading (taken after 0.5 h) was used to quantify the 100% K+-release.
As described hereinbefore differential interaction between ergosterol found in fungal membranes and cholesterol in mammalian cells is considered the basis for the selectivity of AmB (1a) as an antifungal agent. The preferential stabilization of ion channel formation in the membrane by ergosterol ultimately results in electrolyte leakage which can be conveniently measured by K^+ efflux from sterol containing vesicles. To assess the interaction of the polyene macrolide derivatives of the invention with sterols, derivatives 3, 9 and 10 were examined in their ability to lead to K^+ efflux from large unilamellar vesicles (LUV) prepared from POPC (1-palmitoyl-2-oleoyl-sn-glycero-3-phosphocholine) admixed with sterols, mimicking conditions in natural biomembranes (FIG. 3). At high concentration (FIG. 3b,d,f,h), all compounds rapidly induce complete K^+ efflux from vesicles containing ergosterol (dotted line). […] This differentiation between ergosterol and cholesterol is consistent with the observation of reduced hemotoxicity of 3, 9 and 10.

The next data set has as its system human erythrocytes. The data set is described as follows: Hemolytic assay (EH50). The data set is classed as cell-based. On the procedure: Hemolytic Assay. The hemotoxicity of the polyene macrolide derivatives of the invention was determined by measuring the toxicity towards human erythrocytes (EH50 value) using an established assay (Kinsky, S. C. et al., Biochem. Biophys. Res. Comm. 1962, 9, 503). Human blood, anticoagulated with citrate or EDTA, was centrifuged (2000×g) at 4° C. for 10 minutes. The pellets were washed three times with PBS buffer (pH 7.2 with 2 g/L glucose) and then diluted to a concentration of 4% (4×10^8 cells/mL). All experiments were done in triplo and the total volume for the hemolysis tubes was 1.4 ml. The solutions were prepared by adding 1% (14 μL) of DMSO solution of the tested compound with […] of PBS buffer and completed with 750 μL of 4% erythrocytes. After one hour incubation at 37° C., the samples were centrifuged (1500×g) at 4° C. for 5 min and the absorbance of the supernatant was measured at 560 nm. The concentration that led to 50% hemolysis (EH50) was intrapolated graphically. The value for the 100% hemolysis was obtained by the treatment with 100 μM of AmB.
The toxicity of AmB (1a) and the polyene macrolides 3, 9 and 10 towards human erythrocytes was examined using the above described hemolysis assay (Table 3).

The test system of another data set is CAF2-1 C. albican wt. Kind of data set: MIC determination in Candida strain CAF2-1. The settings on record: Candida albicans. The data set is classed as cell-based, Candida albicans. On the procedure:
as §1, §2

A further data set in a line: Solubility assay. The data set is classed as physicochemical. The settings on record: PBS buffer, pH 7.2, aqueous buffer, kinetic from dmso stock, DMSO stock added to PBS buffer solution pH 7.2; precipitation point by light scattering at 600 nm; read-out: Solubility in water. The protocol: Solubility assay. The solubility assay was performed according to Lipinski, C. A. et al Advances Drug Delivery Reviews 2001, 46, 3-26. Typically, a compound of the invention was dissolved in DMSO at a concentration of 10 μg/μl. The so obtained solution was added in […] at 1 min intervals to 2.5 ml PBS buffer solution pH 7.2. These additions correspond to solubility increments of 5 μg/ml to a top value of 65 μg/ml. A total of 14 additions were made and each time increased UV absorbance from light scattering was measured at 600 nm. The precipitation point was calculated from a bilinear curve fit to the Absorbance (y axis) versus μl of DMSO (x axis) plot.
The solubility of the polyene macrolides of the invention in water was tested following the above described protocol. Clearly, all conjugates were more soluble in water then AmB.

The test system of a further data set is DSY-565 C. glabrata CI. The data set is described as follows: MIC determination in Candida strain DSY-565. The data set is classed as cell-based. The conditions noted are these: Nakaseomyces glabratus. On the procedure: as §1, §2
The nature of data set [3]: K+ efflux assay, ergosterol containing vesicles. The conditions noted are these: lower concentration, 0.1 μM (FIG. 3a,c,e,g). On the procedure: as §3
K+ efflux assay. The K^+ efflux measurements were made following a previously described procedure (Zumbuehl, A. et al., Angew. Chem. Int. Ed. 2004, 43, 5181-5185; Zumbuehl, A. et al., Org. Lett. 2004, 6, 3683-3686). The appropriate liposome suspensions were prepared using POPC, cholesterol and ergosterol. Then the liposomes were sized by extrusion through two 400 nm, 200 nm, and finally 100 nm pore size membrane. The resultant “100 nm” unilamellar liposomes were dialyzed against 600 mL of 150 mM NaCl, 5 mM HEPES (pH 7.4) buffer. After, the suspension was diluted with 150 mM NaCl, 5 mM HEPES (pH 7.4) buffer to 1 mM overall lipid concentration (phospholipids+sterols). For each efflux measurement 10 mL of this liposome suspension was placed in a small beaker. Potentiometric measurements were performed with a 16-channel electrode monitor in magnetically stirred solutions at ambient temperature. The reference electrode was a Metrohm double junction Ag/AgCl reference electrode with 3 M KCl as reference electrolyte and 1 M LiOAc as bridge electrolyte. […] The resulting reading (taken after 0.5 h) was used to quantify the 100% K+-release.
As described hereinbefore differential interaction between ergosterol found in fungal membranes and cholesterol in mammalian cells is considered the basis for the selectivity of AmB (1a) as an antifungal agent. The preferential stabilization of ion channel formation in the membrane by ergosterol ultimately results in electrolyte leakage which can be conveniently measured by K^+ efflux from sterol containing vesicles. […]

Another data set deals with DSY-562 C. glabrata CI. Kind of data set: MIC determination in Candida strain DSY-562. The data set is classed as cell-based. The settings on record: Nakaseomyces glabratus. The protocol: as §1, §2
In a further data set the test system is DSY-294 C. albican CI. Kind of data set: MIC determination in Candida strain DSY-294. The data set is classed as cell-based, Candida albicans. The settings on record: Candida albicans. The protocol:
as §1, §2

In data set [4] the test system is Saccharomyces cerevisiae wild type BY4741. The data set is described as follows: MIC determination in Saccharomyces cerevisiae wild type BY4741. The format is cell-based. The conditions noted are these: for MIC: read-out: MIC. The protocol: as §1
MIC values of various polyene macrolides of the invention in Saccharomyces cerevisiae wild type BY4741, a derivative of S288C, (with AmB as a reference) were determined as described hereinabove.
Based on the remarkable performance observed with the Diamine-AmB conjugate similar modifications of the aminosugar moiety were made on other polyene macrolides, such as for example Nystatin (1b) and Pimaricin (1c). The antifungal activity of these nystatin and pimaricin conjugates bearing two aminopropyl side chains was measured using Saccharomyces cerevisiae wild type BY4741.

For data set [5], the system named is DSY-1751 C. albican mutant erg3. The data set is described as follows: MIC determination in Candida strain DSY-1751. The data set is classed as cell-based, Candida albicans. The settings on record: Candida albicans. On the procedure:
as §1, §2

Data set [6] deals with DSY-654 C. albican mutant cdr1/2. The data set is described as follows: MIC determination in Candida strain DSY-654. The format is cell-based, Candida albicans. The conditions noted are these: Candida albicans. On the procedure:
as §1, §2

Where [7] appears, read: Saccharomyces cerevisiae wild type BY4741, YEPD liquid medium, 18 hours at 30° C.

For orientation: MIC means the lowest concentration that inhibits growth of the organism. The term solubility denotes the dissolved amount per volume that the medium holds. `C[C@@H]1[C@H](O)[C@@H](C)/C=C/C=C/C=C/C=C/C=C/C=C/C=C/[C@H](O[C@@H]2O[C@H](C)[C@@H](O)[C@H](N(CCCN)CCCN)[C@@H]2O)C[C@@H]2O[C@](O)(C[C@@H](O)C[C@@H](O)[C@H](O)CC[C@@H](O)C[C@@H](O)CC(=O)O[C@H]1C)C[C@H](O)[C@H]2C(=O)O` [compound 3, N,N-Di-(3-aminopropyl)-AmB]: the MIC in data set [1] was 1 µM (≈ 1.04 µg/mL); in the data set with CAF2-1 C. albican wt, 0.1 µM (≈ 0.104 µg/mL); against DSY-565 C. glabrata CI, 0.2 µM (≈ 0.208 µg/mL); in the data set with DSY-562 C. glabrata CI it was 0.2 µM (≈ 0.208 µg/mL); against DSY-294 C. albican CI, 0.2 µM (≈ 0.208 µg/mL); in data set [4] (setting [7]) it was 0.02 µM and 0.020 µM. In addition, the MIC in data set [4] (Saccharomyces cerevisiae, Table 3, strain not given, values as in Table 1 (S. cerevisiae BY4741)) was 0.02 µM (≈ 0.0208 µg/mL). Besides, in data set [2], the “K+ efflux with cholesterol containing vesicles” value is recorded as “indistinguishable from background”. In the data set with human erythrocytes (concentration that led to 50% hemolysis of human erythrocytes, one hour at 37° C.), this molecule displayed an EH50 of 10 µM. Besides, the “times less toxic than AmB (EH50)” value in the data set on human erythrocytes (human erythrocytes, relative to AmB (1a)) worked out at 2.5 times. Also, the solubility in the data set “Solubility assay” was found to be 12 µg/mL (≈ 11.6 µM). Also, the “K+ efflux with ergosterol containing vesicles” value in data set [3] is on record as “observed exclusively with the ergosterol containing vesicles”. Moreover, in [4] (Saccharomyces cerevisiae wild type BY4741, relative to AmB), the “times more active than AmB (MIC)” value is 15 times.

For the molecule `C[C@@H]1[C@H](O)[C@@H](C)/C=C/C=C/C=C/C=C/C=C/C=C/C=C/[C@H](O[C@@H]2O[C@H](C)[C@@H](O)[C@H](N(CCCN)CCCN)[C@@H]2O)CC2O[C@](O)(C[C@@H](O)C[C@@H](O)[C@H](O)CC[C@@H](O)C[C@@H](O)CC(=O)O[C@H]1C)C[C@H](O)[C@H]2C(=O)N1CCN(C)CC1` [compound 12, 16-(N′-(1-Methylpiperazinyl)carboxamide)-N,N-di-(3-aminopropyl)-AmB], the MIC came to 1 µM (≈ 1.12 µg/mL) in [1]; 0.4 µM (≈ 0.448 µg/mL) in data set [5]; 0.3 µM (≈ 0.336 µg/mL) with CAF2-1 C. albican wt; 0.2 µM (≈ 0.224 µg/mL) in the data set on DSY-565 C. glabrata CI; 0.4 µM (≈ 0.448 µg/mL) in data set [6]; 0.3 µM (≈ 0.336 µg/mL) against DSY-562 C. glabrata CI. In addition, the MIC in data set [4] (setting [7]) was 0.2 µM (≈ 0.224 µg/mL).
